Data reported in patent publication US8008007B2, “S-adenosyl-L-methionine analogs with extended activated groups for transfer by methyltransferases” (RWTH Aachen, priority 2005, dated 2011).

Tests used:
Type in all cases: biochemical
M.TaqI-V21G = molecular target: T1, M.TaqI-V21G (Thermus aquaticus, UniProt P14385, V21G); assay: DNA protection assay with M.TaqI variant V21G on phage lambda DNA; conditions: 1 μg phage lambda DNA, cofactor 300 μM, 60° C. for 4 h, then R.TaqI
T1 construct: made in house
T1 sequence (P14385 whole entry V21G): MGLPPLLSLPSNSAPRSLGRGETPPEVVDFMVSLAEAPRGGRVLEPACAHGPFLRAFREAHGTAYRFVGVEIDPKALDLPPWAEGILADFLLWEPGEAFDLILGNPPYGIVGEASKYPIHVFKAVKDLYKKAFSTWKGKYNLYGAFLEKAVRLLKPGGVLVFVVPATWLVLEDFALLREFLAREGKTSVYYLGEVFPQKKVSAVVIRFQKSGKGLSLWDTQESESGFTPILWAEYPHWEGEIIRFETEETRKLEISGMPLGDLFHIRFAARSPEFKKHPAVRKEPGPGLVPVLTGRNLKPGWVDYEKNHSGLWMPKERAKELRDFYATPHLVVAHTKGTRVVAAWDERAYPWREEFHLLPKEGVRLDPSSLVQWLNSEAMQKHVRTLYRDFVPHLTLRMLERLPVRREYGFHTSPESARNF
Text: (§1) Transfer kinetics of the activated ethyl (—CH2CH3), propyl (—CH2CH2CH3), prop-2-enyl (—CH2CH═CH2), prop-2-ynyl (—CH2C≡CH), but-2-ynyl (—CH2C≡CCH3), pent-2-ynyl (—CH2C≡CCH2CH3) and benzyl group (—CH2C6H5) from cofactors 3-9 by the DNA adenine-N6 methyltransferase M.TaqI and its variant V21 G, the DNA cytosine-C5 methyltransferase M.HhaI and its variant Q82A, the DNA cytosine-N4 methyltransferase M.BcnIB and the DNA cytosine-C5 methyltransferase M.SssI variant Q142A to phage lambda DNA (48502 base pairs) were investigated using a DNA protection assay. This assay makes use of the fact that DNA methyltransferase-catalyzed modifications of nucleobases within the recognition sequences of restriction endonucleases can protect the DNA against fragmentation by these enzymes. […] Unmodified DNA containing 5′-TCGA-3′ recognition sequences is readily fragmentated by R.TaqI. After DNA modification by M.TaqI in the presence of a cofactor with an activated group Z—R modified 5′-TCGA^Z—R-3′ sequences are formed and, as a result, R.TaqI is unable to fragment the modified DNA. Occurrence of fragmentation is then analyzed by agarose gel electrophoresis.
(§2) By varying the amounts of DNA methyltransferase, this assay is used to investigate the enzymatic activities of the different DNA methyltransferases with cofactors 3-9 and compare them to the enzymatic activities with the natural cofactor 1. The minimal amount of DNA methyltransferase needed to fully protect 1 μg of phage lambda DNA against restriction endonuclease fragmentation under the given experimental conditions is defined as one enzyme unit (u).
(§3) Afterwards a solution (30 μL) containing R.TaqI restriction endonuclease (40 u, MBI Fermentas), bovine serum albumin (0.166 mg/mL) and buffer (16.6 mM Tris hydrochloride, 166 mM sodium chloride, 8.3 mM magnesium chloride, pH 8.0) was added to each dilution and incubation at 60-65° C. was continued for 15 min. Loading buffer (10 μL, 0.25% bromphenol blue, 30% glycerol) was added to each sample, and aliquots (12 μL) were analyzed for the degree of protection by agarose gel (1%) electrophoresis. Parallel control experiments were performed with phage lambda DNA in the absence of M.TaqI and in the presence of M.TaqI (200 ng).
Therefore, the codon for V21 was changed to a codon for glycine by standard PCR mutagenesis (Ho et al., (1989) Gene 77, 51-59) and the correct DNA sequence of the complete gene was verified by DNA sequencing. […] The DNA protection assay with the V21G variant was performed as described for the wild type (Example 3A.1).

M.HhaI-Q82A = molecular target: T2, M.HhaI-Q82A (Haemophilus parahaemolyticus, UniProt P05102, Q82A); assay: Modification of cytosine-C5 in duplex oligodeoxynucleotide III.IV by M.HhaI-Q82A, nucleoside analysis by HPLC/ESI-MS; conditions: duplex III.IV 12.5 μM, cofactor 300 μM, enzyme 15 μM, 37° C. over night
T2 construct: made in house
T2 sequence (P05102 whole entry Q82A): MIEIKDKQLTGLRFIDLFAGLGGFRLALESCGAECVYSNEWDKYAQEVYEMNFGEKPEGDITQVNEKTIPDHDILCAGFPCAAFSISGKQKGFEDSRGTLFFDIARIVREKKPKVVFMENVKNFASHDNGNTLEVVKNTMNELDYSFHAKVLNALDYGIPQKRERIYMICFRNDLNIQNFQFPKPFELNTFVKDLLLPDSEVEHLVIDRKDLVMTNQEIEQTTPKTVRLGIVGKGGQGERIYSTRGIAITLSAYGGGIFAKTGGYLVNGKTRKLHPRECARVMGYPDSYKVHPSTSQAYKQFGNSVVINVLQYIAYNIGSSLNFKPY
Text: Transfer of the activated ethyl (CH2CH3), propyl (CH2CH2CH3), prop-2-enyl (CH2CHCH2), prop-2-ynyl group (CH2CCH), but-2-ynyl (CH2CCCH3), pent-2-ynyl (CH2CCCH2CH3) or benzyl group (CH2C6H5) from cofactors 3-9 by the DNA adenine-N6 methyltransferase M.TaqI, the DNA cytosine-C5 methyltransferase M.HhaI variant Q82A or the DNA cytosine-N4 methyltransferase M.BcnIB to DNA was first investigated using short duplex oligodeoxynucleotides as substrates. After enzymatic transfer the duplex oligodeoxynucleotides were enzymatically fragmented and the resulting modified nucleosides were analyzed by reversed-phase HPLC coupled with ESI-MS.
Therefore, the codon for Q82 was changed to a codon for alanine by standard Kunkel mutagenesis (Kunkel et al., […] Proc. Natl. Acad. Sci. USA 82, 488-492) and the correct DNA sequence of the complete gene was verified by DNA sequencing. Expression and purification of the Q82A variant was performed as described for the wild-type enzyme (Kumar et al., (1992) Biochemistry 31, 8648-8653; Klimasauskas et al., (1998) EMBO J. 17, 317-324). The presence of the amino acid substitution was verified by mass spectrometric analysis of purified M.HhaI-Q82A.
The duplex oligodeoxynucleotide III.IV was produced by mixing equal molar amounts (2.5 nmol) of complementary single-stranded oligodeoxynucleotide III (5′-[…]-3′) (SEQ ID NO. 3) and IV (5′-[…]-3′) (SEQ ID NO. 4) in water, heating at 85° C. for 5 min and slow cooling to room temperature. […] M.HhaI-Q82A was denatured by heating to 80° C. for 10 min and incubation with Proteinase K at 55° C. for 1 h. Hydrolysis products were removed by gel filtration (G-25 column, Amersham Biosciences).
The obtained solutions of duplex oligodeoxynucleotides were treated with buffer ( 1/10 volume, 100 mM Tris hydrochloride, 100 mM magnesium chloride, 10 mM zinc acetate, pH 7.5) containing Nuclease P1 (1500 u, Sigma) and calf intestine alkaline phosphatase (30 u, MBI Fermentas) and incubated at 37° C. for 4 h. Nucleosides were analyzed by reversed-phase HPLC (Discovery C18 150×2.1 mm, 5 μm, equipped with a Supelguard Discovery C18 20×2.1 mm, 5 μm, pre-column, Supelco, Germany) coupled with a mass spectrometric detector (HP 1100 series ESI-MS equipped with single quadruple). Compounds were eluted with methanol (0% for 6 min, followed by linear gradients to 56% in 15 min and to 80% in 1 min) in ammonium formate buffer (20 mM, pH 4.25 for cofactors 3, 4, 6 and pH 3.5 for cofactors 5, 7, 8) at a flow of 0.3 mL/min and detected at 280 nm. For on-line mass spectrometric detection post-column mobile phase modification (equal co-flow of 96% methanol, 4% formic acid and 1 mM sodium hydroxide) was used to enhance the detection efficiency of 2′-deoxycytidine and its derivatives. Mass spectra were recorded in 50-600 m/z range.

M.TaqI = molecular target: T3, M.TaqI (Thermus aquaticus, UniProt P14385); assay: DNA protection assay with M.TaqI (wild-type) on phage lambda DNA; conditions: cofactor 300 μM, then R.TaqI
T3 construct: made in house
T3 sequence (P14385 whole entry): as the sequence (P14385 whole entry V21G) above, with G21V counted along it
Text: as §1, §2, §3
Afterwards a solution (10 μL) containing R.TaqI restriction endonuclease (10 u, MBI Fermentas), bovine serum albumin (0.1 mg/mL) and buffer (33 mM Tris acetate, 66 mM potassium acetate, 10 mM magnesium acetate, pH 7.9) was added to each dilution and incubation was continued at 65° C. for 1 h. […] Parallel control experiments were performed with phage lambda DNA in the absence of M.TaqI and in the presence of M.TaqI (180 ng).

[1] = 1 μg phage lambda DNA, 60° C. for 4 h, 1 u = minimal enzyme amount fully protecting 1 μg DNA

SMILES | specific activity of M.TaqI-V21G with the cofactor (M.TaqI-V21G) [u/μg] | cofactor function for M.HhaI-Q82A (transfer of group Z-R to cytosine-C5) (M.HhaI-Q82A) | specific activity of M.TaqI with the cofactor (M.TaqI; [1]) [u/μg] | specific activity of M.TaqI with the cofactor (M.TaqI; 1.03 μg phage lambda DNA, 60° C. for 1 h only (multiply by four to compare with 4 h values)) [u/μg]
CC[S+](CCC(N)C(=O)O)CC1OC(n2cnc3c(N)ncnc32)C(O)C1O (stereo not shown) [Cofactor 3] | 5 | functions as a cofactor | 10 | –
C#CC[S+](CCC(N)C(=O)O)CC1OC(n2cnc3c(N)ncnc32)C(O)C1O (stereo not shown) [Cofactor 6] | 20 | functions as a cofactor | 10 | –
CC#CC[S+](CCC(N)C(=O)O)CC1OC(n2cnc3c(N)ncnc32)C(O)C1O (mixture of isomers) [Cofactor 7] | 80 | functions as a cofactor | 1280 | –
NCCCC(=O)NCC#CC[S+](CCC(N)C(=O)O)CC1OC(n2cnc3c(N)ncnc32)C(O)C1O (stereo not shown) [Cofactor 10] | – | – | – | 11
C=CC[S+](CCC(N)C(=O)O)CC1OC(n2cnc3c(N)ncnc32)C(O)C1O (stereo not shown) [Cofactor 5] | 640 | functions as a cofactor | 80 | –
CCC[S+](CCC(N)C(=O)O)CC1OC(n2cnc3c(N)ncnc32)C(O)C1O (stereo not shown) [Cofactor 4] | < 5 | does not function as a cofactor | < 5 | –
CCC#CC[S+](CCC(N)C(=O)O)CC1OC(n2cnc3c(N)ncnc32)C(O)C1O (stereo not shown) [Cofactor 8] | 80 | functions as a cofactor | 640 | –
